US20160045486A1, “DOPAMINE RECEPTOR LIGANDS WITH ENHANCED DURATION OF ACTION” (priority 2008, published 2016)
Counter-ions that a name gives are not always drawn. Like-named read-outs stand apart in the source and are kept apart here.

Legend:
[1] = biological target: T1, Cloned human receptors D1 (C-6); assay: Binding affinity, cloned human D1 receptor (C-6)
T1 construct: C-6 glioma cells expressing the rhesus macaque D1 A receptor, (C-6-m D1 A)
Description: Cells were maintained in a humidified incubator at 37° C. with 5% CO2.

[2] = biological target: T2, Cloned human receptors D2L (C-6) (Homo sapiens, UniProt P14416); assay: Binding affinity, cloned human D2L receptor (C-6)
T2 construct: expressed in transfected cells; host or cells: C-6 cells
T2 sequence (P14416 whole entry): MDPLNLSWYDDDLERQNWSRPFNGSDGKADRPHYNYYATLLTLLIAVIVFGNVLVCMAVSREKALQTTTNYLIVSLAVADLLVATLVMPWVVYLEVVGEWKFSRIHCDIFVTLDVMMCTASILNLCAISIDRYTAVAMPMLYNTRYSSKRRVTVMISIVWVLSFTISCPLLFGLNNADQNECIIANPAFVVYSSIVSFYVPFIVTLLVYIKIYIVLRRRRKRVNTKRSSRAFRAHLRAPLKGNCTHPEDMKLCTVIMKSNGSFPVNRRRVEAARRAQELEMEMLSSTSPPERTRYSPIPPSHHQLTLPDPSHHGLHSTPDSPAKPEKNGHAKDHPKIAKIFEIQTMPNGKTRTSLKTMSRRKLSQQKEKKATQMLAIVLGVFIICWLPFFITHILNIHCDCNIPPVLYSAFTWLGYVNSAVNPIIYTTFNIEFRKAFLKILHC
Description: (§1) Binding data from each assay were analyzed separately. Data were normalized by expressing the average dpm at each competitor concentration as a percentage of total binding.

[3] = biological target: T3, Cloned human receptors D3 (CHO) (Homo sapiens, UniProt P35462); assay: Binding affinity, cloned human D3 receptor (CHO)
T3 construct: expressed in transfected cells; host or cells: CHO cells
T3 sequence (P35462 whole entry): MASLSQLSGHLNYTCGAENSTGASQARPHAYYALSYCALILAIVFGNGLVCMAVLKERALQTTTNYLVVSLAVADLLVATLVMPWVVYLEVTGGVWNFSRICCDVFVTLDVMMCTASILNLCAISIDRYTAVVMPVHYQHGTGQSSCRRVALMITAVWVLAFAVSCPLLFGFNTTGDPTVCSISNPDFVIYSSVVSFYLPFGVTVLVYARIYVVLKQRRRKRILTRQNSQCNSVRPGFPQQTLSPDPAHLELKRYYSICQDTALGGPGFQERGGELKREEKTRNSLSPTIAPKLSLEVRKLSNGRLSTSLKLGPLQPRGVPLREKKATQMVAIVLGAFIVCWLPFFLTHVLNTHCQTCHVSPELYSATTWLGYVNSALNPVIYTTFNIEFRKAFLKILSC
Description: as §1

[4] = tested on: non-dopamine receptors (monoamine transporters, serotonin, adrenergic, hH1, muscarinic, opioid, miscellaneous receptors); assay: Affinity at other receptors (10 μM screen of non-dopamine receptors and transporters); conditions: 10 μM concentration; full dose-response only where >50% inhibition of binding
[5] = biological target: T4, cloned hD1 receptors expressed in Ltk cells (Homo sapiens, UniProt P21728); assay: Dopamine D1 agonist activity, activation of adenylate cyclase; type: cell-based; conditions: FIG. 2, compared to dihydrexidine
T4 construct: expressed in transfected cells; host or cells: Ltk cells
T4 sequence (P21728 whole entry): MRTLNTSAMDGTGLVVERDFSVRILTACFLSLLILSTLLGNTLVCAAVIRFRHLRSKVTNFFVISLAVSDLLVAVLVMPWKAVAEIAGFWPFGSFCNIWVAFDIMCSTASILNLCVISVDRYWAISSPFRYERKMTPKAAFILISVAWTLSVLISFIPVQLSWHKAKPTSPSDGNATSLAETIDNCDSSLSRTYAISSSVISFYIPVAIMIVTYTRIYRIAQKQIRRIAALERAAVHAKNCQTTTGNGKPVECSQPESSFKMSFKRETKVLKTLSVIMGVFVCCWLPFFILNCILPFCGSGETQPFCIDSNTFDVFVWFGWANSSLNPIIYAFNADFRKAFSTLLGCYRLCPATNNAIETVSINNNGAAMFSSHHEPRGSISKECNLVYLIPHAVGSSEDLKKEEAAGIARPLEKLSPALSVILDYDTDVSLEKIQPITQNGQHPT
Description: Studies were done in cloned hD1 receptors expressed in Ltk cells.
Frozen membranes were thawed and added to assay tubes (10 μg protein/tube) containing a prepared reaction mixture [100 mM Hepes, (pH 7.4), 100 mM NaCl, 4 mM MgCl2, 2 mM EDTA, 500 μM isobutyl methylxanthine (IBMX), 0.01% ascorbic acid, 10 μM pargyline, 2 mM ATP, 5 μM GTP, 20 mM phosphocreatine, 5 units of creatine phosphokinase (CPK), 1 μM propranolol] and selected drugs. The final reaction volume was 100 μL.
Basal cAMP activity was determined by incubation of tissue in the reaction mixture with no drug added. Tubes were assayed in duplicate and, after a 15 min incubation at 30° C., the reaction was stopped by the addition of 500 μL of 0.1 N HCl. Tubes were vortexed briefly, and then spun in a BHG HermLe Z 230 M microcentrifuge for five min at 15,000×g to precipitate particulates.
The concentration of cAMP in each sample was determined with an RIA of acetylated cAMP, modified from that previously described. Iodination of cAMP was performed using a now-published procedure (Brown et al., 2009). […] Antibody-bound radioactivity was separated by the addition of 25 μL of BioMag rabbit, anti-goat IgG (Advanced Magnetics, Cambridge Mass.), followed by vortexing and incubation at 4° C. for 1 h. […] Supernatants were aspirated and radioactivity in the pellet was determined using an LKB Wallac gamma counter (Gaithersburg, Md.). […]

[6] = tested on: unilateral 6-OHDA rat model; assay: Rotation in the unilateral 6-OHDA rat model of Parkinson's disease; type: in vivo
Description: Both drugs were administered 1 mg/kg subcutaneously (SC), and the number of rotations measured (i.e., rotations counter clockwise) over time (minutes) using the model first described by
Ungerstedt (Ungerstedt and Arbuthnott, 1970).
In some studies, adult male Sprague Dawley rats (200-250 g) were obtained from Charles River Breeding Laboratories (Raleigh, N.C.) or Harlan Laboratories (Indianapolis, Ind.). Rats were killed by decapitation, and the whole brains removed and chilled briefly in ice-cold saline. Brains were sliced with the aid of a dissecting block, and central striata were then dissected from two coronal sections containing the majority of this region. Tissue was frozen immediately on dry ice and stored at −70° C. until the day of the assay. In other studies, Sprague-Dawley rats weighing between ca. 175 g received unilateral injections of 6-OHDA. They were pretreated with 25 mg/kg desipramine, anesthetized with sodium pentobarbital and placed in a stereotaxic apparatus. Thirty gauge needles were lowered into the right aspects of the substantia nigra at Interaural zero +3.2 mm; lateral −2.0 mm; and dorsoventral −7.7 mm. Four μl of 0.1% ascorbic acid in sterile saline containing 8 μg of 6-OHDA were infused in each side over a period of 20 minutes using 10 μl Hamilton syringes and a Sage syringe pump. The needles were left in place two minutes after infusion to minimize withdrawal of the 6-OHDA solution with the needles. The small burr holes in the skull were plugged with bone wax, and the wound sutured. Post-operative care of these rats included observation, sweet food supplements, and gastric intubation during the aphagic period following lesion. Fourteen or more days after the lesion, rats were challenged with 1 mg/kg apomorphine, and rotations measured. […] The rats were then allowed to “wash-out” for a week between drug trials.

[7] = biological target: T5, Cloned human receptors D4 (CHO) (Homo sapiens, UniProt P21917); assay: biochemical
T5 sequence (P21917 1-419): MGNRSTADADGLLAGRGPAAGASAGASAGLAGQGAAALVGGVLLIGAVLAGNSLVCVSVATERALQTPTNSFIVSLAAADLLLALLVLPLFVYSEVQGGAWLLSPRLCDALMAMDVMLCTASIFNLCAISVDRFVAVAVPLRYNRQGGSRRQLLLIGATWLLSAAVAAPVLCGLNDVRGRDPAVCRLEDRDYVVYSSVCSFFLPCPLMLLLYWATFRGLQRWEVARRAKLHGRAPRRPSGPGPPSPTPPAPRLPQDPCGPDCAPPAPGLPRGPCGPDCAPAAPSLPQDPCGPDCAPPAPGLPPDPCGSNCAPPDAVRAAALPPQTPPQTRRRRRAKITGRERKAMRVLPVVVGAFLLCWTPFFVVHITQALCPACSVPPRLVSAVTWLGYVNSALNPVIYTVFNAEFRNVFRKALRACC
Description: as §1

[8] = biological target: Cloned human receptors D5 (HEK) (Homo sapiens, UniProt P21918); assay: biochemical
Sequence of Cloned human receptors D5 (HEK) (P21918 whole entry): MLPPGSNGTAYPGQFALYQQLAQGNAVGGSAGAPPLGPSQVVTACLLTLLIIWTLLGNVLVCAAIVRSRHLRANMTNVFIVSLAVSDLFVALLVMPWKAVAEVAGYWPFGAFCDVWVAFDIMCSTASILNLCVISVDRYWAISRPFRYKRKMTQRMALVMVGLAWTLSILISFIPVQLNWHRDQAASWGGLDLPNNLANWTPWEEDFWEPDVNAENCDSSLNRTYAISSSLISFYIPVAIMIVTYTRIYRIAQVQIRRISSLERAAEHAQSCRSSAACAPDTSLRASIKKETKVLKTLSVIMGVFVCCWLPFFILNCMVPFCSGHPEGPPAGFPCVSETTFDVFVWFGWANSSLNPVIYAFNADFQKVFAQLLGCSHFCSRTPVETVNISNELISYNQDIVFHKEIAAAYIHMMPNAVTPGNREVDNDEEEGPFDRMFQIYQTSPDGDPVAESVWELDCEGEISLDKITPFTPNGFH
Description: as §1

Row | Ki ([1]; C-6 cells; read-out: K0.5, Cloned human receptors D1 (C-6)) [nM] | Ki ([3]; CHO cells, read-out: K0.5, Cloned human receptors D3 (CHO)) [nM] | SMILES | Ki ([1]; read-out: K0.5, Cloned human receptors D1 (C-6); C-6 cells) [nM] | Ki [2] [nM] | Ki [3] [nM] | affinity for non-dopamine receptors [4] | agonist intrinsic activity and potency (adenylate cyclase, percentage of activation caused by 100 μM dopamine) [5] | agonist effects in presence of D1 antagonist SCH23390 ([6]; SCH23390 0.3 mg/kg) | rotation in presence of D2 antagonist haloperidol ([6]; haloperidol 0.1 mg/kg) | duration of activity (rotations over time) ([6]; single subcutaneous injection of 1 mg/kg, FIG. 1) | Ki [7] [nM] | Ki [8] [nM]
1 |  |  | Cc1ccc2c(c1)[C@@H]1c3cc(O)c(O)cc3CC[C@H]1NC2 (racemic) [Compound 1, Trans-2-methyl-10,11-dihydroxy-5,6,6a,7,8,12b-hexahydrobenzo[a]phenanthridine hydrochloride] | 8 | 525 | 95 | little affinity for most receptors | full agonist of similar intrinsic activity and potency when compared to dihydrexidine | completely blocked | not blocked | activity lasting for nearly ten hours | 325 | 7
2 | 2.2 | 15 | Oc1cc2c(cc1O)[C@@H]1c3ccccc3CN[C@H]1CC2 (relative stereo) [dihydrexidine, trans-10,11-dihydroxy-5,6,6a,7,8,12b-hexahydrobenzo[a]phenanthridine, reference compound] |  |  |  |  |  |  |  |  |  | 
